Earlier results, collected in article PMC12833850, “Hybridization Approach Applied to Umbelliferon and Vanilloids toward New Inhibitors of Carbonic Anhydrases IX and XII with In Vitro Antiproliferative and Anti-inflammatory Activities” (Journal of Medicinal Chemistry, 2026).

Molecular target: T1, hCA IX (Homo sapiens, UniProt Q16790)
T1 construct: made in house
Conditions: data already reported; ref Maresca and Supuran, 2010

Question: With O=c1ccc2cc(O)ccc2o1 [Compound 2, 6-hydroxycoumarin] as the compound, how does the Ki read?
Answer: 198 nM
